Reference: ChEMBL document CHEMBL1201862, “PubChem BioAssay data set” (2004)
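Growth conditions: 96-well plates. Treatment: test compound, 48 hours, 5 concentrations. Analysis: linear interpolation between bracketing concentrations; unreached endpoints set to highest concentration. GI50: concentration for 50% inhibition of growth.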 The source made the active and inactive calls. No stated cut-off is given here; in the data, active = GI50 up to about 1.1 µM and inactive = higher.

How the values were obtained:
Test in all cases: DTP human tumour cell line panel, 48 h
[1] = test system: A498
[2] = test system: ACHN
[3] = test system: CAKI-1
[4] = test system: COLO 205
[5] = test system: DU-145
[6] = test system: HCT-116
[7] = test system: HCT-15
[8] = test system: HOP-62
[9] = test system: Hs-578T
[10] = test system: IGROV-1
[11] = test system: LOX IMVI
[12] = test system: MDA-N
[13] = test system: Malme-3M
[14] = test system: RPMI-8226
[15] = test system: SK-MEL-5
[16] = test system: SK-OV-3
[17] = test system: SN12C
[18] = test system: SR
[19] = test system: UACC-257

Measured: GI50

C/C(=N\Nc1ccc([N+](=O)[O-])cc1[N+](=O)[O-])c1sc(-n2nc(-c3ccccc3)cc2-c2ccccc2)nc1C
38.6 µM: [7]
active: [10] 0.897 µM
inactive: [1] 41 µM | [2] 16.6 µM | [3] 20 µM | [4] 24.8 µM | [5] 35.5 µM | [6] 29.4 µM | [8] 70.3 µM | [9] 78.9 µM | [11] 11.9 µM | [12] 46.8 µM | [13] 76.7 µM | [14] 20.9 µM | [15] 34.4 µM | [16] 24.5 µM | [17] 50.1 µM | [18] 18.3 µM | [19] 20.8 µM

O=[N+]([O-])c1ccc2c3ccccc3[s+]([O-])c2c1 (centres undefined)
inactive: [1] > 100 µM | [2] > 100 µM | [3] > 100 µM | [4] 63.7 µM | [5] > 100 µM | [6] > 100 µM | [8] > 100 µM | [9] > 100 µM | [10] > 100 µM | [11] > 100 µM | [12] > 100 µM | [13] 30.5 µM | [14] > 100 µM | [15] > 100 µM | [16] > 100 µM | [17] > 100 µM | [18] > 100 µM | [19] > 100 µM
> 100 µM: [7]

Cc1cc2c(cc1C)C(=O)/C(=N/Nc1ccc(F)cc1)CCO2
> 100 µM: [7]
inactive: [1] > 100 µM | [2] > 100 µM | [3] > 100 µM | [4] > 100 µM | [5] > 100 µM | [6] > 100 µM | [8] > 100 µM | [9] > 100 µM | [10] > 100 µM | [11] 65.8 µM | [12] > 100 µM | [13] 37 µM | [14] > 100 µM | [15] 95.3 µM | [16] > 100 µM | [17] > 100 µM | [18] > 100 µM | [19] > 100 µM

O=c1c2c3c(sc2nc2n1N=CN(c1ccccc1)C2)CCCC3
inactive: [1] > 100 µM | [2] > 100 µM | [3] > 100 µM | [4] > 100 µM | [5] > 100 µM | [6] > 100 µM | [8] > 100 µM | [9] > 100 µM | [10] > 100 µM | [11] > 100 µM | [12] > 100 µM | [13] > 100 µM | [14] > 100 µM | [15] > 100 µM | [16] > 100 µM | [17] > 100 µM | [18] > 100 µM | [19] > 100 µM
> 100 µM: [7]

CC(=O)N(C(=O)CC(=O)NNCc1ccccc1Cl)c1ccc(Cl)cc1
inactive: [1] > 10 µM | [2] > 10 µM | [3] > 10 µM | [4] > 10 µM | [5] > 10 µM | [6] > 10 µM | [8] > 10 µM | [9] > 10 µM | [10] > 10 µM | [11] > 10 µM | [12] > 10 µM | [13] > 10 µM | [14] > 10 µM | [15] > 10 µM | [16] > 10 µM | [17] > 10 µM | [18] > 10 µM | [19] > 10 µM
> 10 µM: [7]

COc1ccc([N+](=O)[O-])c2c(NCCCN(C)C)c3ccccc3nc12
0.0935 µM: [7]
active: [1] 0.0204 µM | [2] 0.13 µM | [3] 0.333 µM | [4] 0.0953 µM | [5] 0.126 µM | [6] 0.112 µM | [8] 0.0998 µM | [9] 0.682 µM | [10] 0.05 µM | [11] 0.461 µM | [12] 0.425 µM | [13] 0.155 µM | [14] 0.218 µM | [15] 0.106 µM | [16] 0.33 µM | [17] 0.26 µM | [18] < 0.01 µM | [19] 0.23 µM

CCN(CC)CCCNc1nncc2c(C)c3[nH]c4ccc(OC)cc4c3cc12
active: [2] 1.08 µM | [4] 1.03 µM | [5] 0.622 µM | [6] 0.277 µM | [8] 0.525 µM | [9] 0.482 µM | [10] 0.356 µM | [11] 0.189 µM | [12] 0.695 µM | [13] 0.916 µM | [14] 0.724 µM | [15] 0.935 µM | [17] 0.271 µM | [18] 0.414 µM
inactive: [1] 1.75 µM | [3] 8.41 µM | [16] 1.17 µM | [19] 2.35 µM
10.3 µM: [7]

COc1ccc(C[C@@H]2OC3(C=CC(=O)C=C3)O[C@H]2Cc2ccc(OC)cc2)cc1
inactive: [1] 5.53 µM | [4] 1.43 µM | [5] 1.48 µM | [8] 1.59 µM | [13] 1.51 µM | [15] 1.52 µM | [16] 6.15 µM | [19] 1.46 µM
active: [2] 0.405 µM | [3] 0.354 µM | [6] 0.133 µM | [9] 0.971 µM | [10] 0.317 µM | [11] 0.172 µM | [12] 0.476 µM | [14] 0.202 µM | [17] 1.05 µM | [18] 0.176 µM
0.255 µM: [7]

C=CC(COC(=O)C(C)(C)OC(C)=O)c1ccc(OC(=O)C(C)C)c(OC)c1 (centres undefined)
2.03 µM: [7]
inactive: [1] 17.2 µM | [2] 2.88 µM | [3] 1.96 µM | [4] 2.46 µM | [5] 11.2 µM | [6] 4.05 µM | [8] 10.1 µM | [9] 7.46 µM | [10] 14.1 µM | [11] 3.17 µM | [12] 3.52 µM | [13] 2.7 µM | [14] 3.78 µM | [15] 13.5 µM | [16] 16.5 µM | [17] 3.34 µM | [18] 2.56 µM | [19] 14.6 µM

O=C1Oc2ccccc2C(=O)/C1=C/N1C(=O)/C(=C/c2ccc([N+](=O)[O-])cc2)SC1=S
19.1 µM: [7]
inactive: [1] 7.91 µM | [2] 15.6 µM | [3] 24.5 µM | [4] 20.5 µM | [5] 25.7 µM | [6] 19.3 µM | [8] 18.2 µM | [9] 6.59 µM | [10] 32.3 µM | [11] 29.6 µM | [12] 17.2 µM | [13] 36.2 µM | [14] 5.65 µM | [15] 19.7 µM | [16] 31.5 µM | [17] 20.4 µM | [18] 31.6 µM | [19] 25.8 µM

O=C1CCc2cc3c(cc21)CC1(Cc2ccccc2C1)C3
inactive: [1] 12.2 µM | [2] 19.8 µM | [4] 3.79 µM | [5] 20.8 µM | [6] 4.08 µM | [8] 9.73 µM | [9] 52.1 µM | [10] 4.3 µM | [11] 8.02 µM | [12] 2.16 µM | [13] 16.8 µM | [14] 6.27 µM | [15] 5.77 µM | [16] 14 µM | [17] 19.9 µM | [18] 1.86 µM | [19] 19.6 µM
13.8 µM: [7]
active: [3] 0.703 µM
